Earlier results in patent publication US20230068267A1, “PLANT EXTRACT COMPOSITION FOR THE TREATMENT OF CARDIOVASCULAR AND METABOLIC DISEASES” (Meda Pharma S.p.A., priority 2020, published 2023).

Columns and labels:
HMG-CoA reductase = biological target: T1, HMG-CoA reductase (Homo sapiens, UniProt P04035); details: statin-like properties; Di Donna 2009
T1 sequence (P04035 1-888): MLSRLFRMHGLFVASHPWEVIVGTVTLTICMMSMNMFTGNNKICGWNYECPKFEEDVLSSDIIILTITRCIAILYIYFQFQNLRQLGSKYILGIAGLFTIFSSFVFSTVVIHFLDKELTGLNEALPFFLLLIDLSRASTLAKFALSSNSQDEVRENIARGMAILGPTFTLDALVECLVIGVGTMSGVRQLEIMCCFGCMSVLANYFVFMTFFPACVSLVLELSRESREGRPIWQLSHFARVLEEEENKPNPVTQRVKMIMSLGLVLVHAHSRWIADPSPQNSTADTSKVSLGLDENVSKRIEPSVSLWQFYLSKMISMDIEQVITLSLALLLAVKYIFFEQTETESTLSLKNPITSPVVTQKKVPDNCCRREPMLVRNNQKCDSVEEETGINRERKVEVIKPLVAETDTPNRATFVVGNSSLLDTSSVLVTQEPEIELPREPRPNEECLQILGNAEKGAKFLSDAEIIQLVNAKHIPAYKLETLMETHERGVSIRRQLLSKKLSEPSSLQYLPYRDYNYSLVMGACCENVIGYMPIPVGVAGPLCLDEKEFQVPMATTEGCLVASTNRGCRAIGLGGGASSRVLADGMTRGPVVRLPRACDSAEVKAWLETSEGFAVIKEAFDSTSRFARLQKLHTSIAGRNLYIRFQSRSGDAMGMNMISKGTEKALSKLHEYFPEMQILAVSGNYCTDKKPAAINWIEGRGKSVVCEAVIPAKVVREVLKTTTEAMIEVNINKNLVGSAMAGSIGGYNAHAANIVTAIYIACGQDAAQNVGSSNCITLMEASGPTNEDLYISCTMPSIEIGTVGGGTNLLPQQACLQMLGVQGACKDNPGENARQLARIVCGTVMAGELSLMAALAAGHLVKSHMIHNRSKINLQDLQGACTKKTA

LDL cholesterol = details: Yu et. al. 2005

Row | Compound | inhibitory action upon HMG-CoA reductase (HMG-CoA reductase) | inhibition of the oxidation of LDL cholesterol (LDL cholesterol)
1 | C[C@@H]1O[C@@H](O[C@@H]2[C@@H](Oc3cc(O)c4c(c3)O[C@H](c3ccc(O)cc3)CC4=O)O[C@@H](COC(=O)C[C@@](C)(O)CC(=O)O)[C@H](O)[C@H]2O)[C@@H](O)[C@H](O)[C@H]1O [Melitidin] | inhibitory action upon HMG-CoA reductase | 
2 | COc1ccc([C@@H]2CC(=O)c3c(O)cc(O[C@H]4O[C@@H](COC(=O)C[C@@](C)(O)CC(=O)O)[C@H](O)[C@@H](O)[C@@H]4O[C@@H]4O[C@@H](C)[C@H](O)[C@@H](O)[C@@H]4O)cc3O2)cc1O [brutieridin] | inhibitory action upon HMG-CoA reductase | 
3 | Rutin |  | inhibit the oxidation of LDL cholesterol
